# Experimental data published in article PMC12598616, “Design and optimization of caspase-1-responsive fluorescent probes for pyroptosis imaging and anti-pyroptosis drug screening” (Chemical Science, 2025).
# Key:
# Cas-1 in THP-1 cells = test: Imaging and flow cytometry in Cas-1 siRNA knockdown THP-1 cells; assay type: cell-based; conditions: caspase-1 siRNA, LPS 1 μg/mL and Nig 10 μM
# Protocol: Cytotoxicity assay (CCK-8)
# The cytotoxicity of FPy1 and YPy1 to THP-1 was evaluated by cell counting kit-8 (CCK-8). Briefly, the THP-1 cells were seeded in 96-well plates (5000 cells/well) and cultured at 37 °C for 24 hours. Various concentrations of FPy1 or YPy1 (0, 2.5, 5, 10, 20, 30, 40, 50 μM) in RPMI 1640 medium were added, and the cells were kept incubation for 12 hours. Then, the cells were washed with PBS and incubated in the 100 μL fresh medium with 10 μL CCK8 dye for an additional 2 hours. The absorbance was measured at 450 nm using a Tecan Infinite M1000 Multi-function microplate reader, and cell viability was calculated using the formula:
# Cell viability (%) = [(OD test-ODblank)/(ODcontrol-ODblank)] ×100%
# Intracellular imaging with FPy1 in THP-1 cells
# THP-1 cells were seeded in dishes and cultured overnight. […] The fluorescence imaging was performed under the excitation at 514 nm with signal collection in the range […]
# for 4 hours, the cells were further treated with Nig (10 μM) for 2 hours. […] The distribution of FPy1 was analyzed by collecting organelle-specific dye fluorescence at 495-525 nm with 488 nm excitation, while simultaneously detecting FPy1 fluorescence at 530-610 nm with 514 nm excitation. […]
# Nucleus pulposus cells were isolated from discs and resuspended in 1mL DMEM/F12 medium containing 10 μM ITS-A. A total of […] were counted and transferred into centrifuge tubes. […]
# [1] = tested on: puncture-induced IVDD rat model; test: In vivo fluorescence imaging of intervertebral disc degeneration; set-up: species or system Sprague-Dawley rat; conditions: intradiscal injection, 0, 1, 2, 4 weeks after puncture
# Protocol: and signals were collected from 530 to 610 nm.
# Chondrocytes spheroid cultivation
# Chondrocytes were isolated from articular cartilage and resuspended in 1mL DMEM/F12 medium containing 10 μM ITS-A. A total of […] were counted and transferred into centrifuge tubes. The cells were incubated in these tubes with half of the medium changed periodically.
# Intracellular imaging in chondrocytes and 3D cell spheroids
# The chondrocytes or 3D cell spheroids were seeded in dishes and cultured overnight. Subsequently, the cells or spheroids were incubated with H2O2 for 30, 60 and 90 minutes. Afterward, the cells were further incubated in medium containing 5 μM FPy1 for 1 hour. Fluorescence imaging was then performed with an excitation of 514 nm, and signals were […]
# Flow cytometry assays in THP-1 cells
# The flow cytometry assays were performed to evaluate the response of FPy1 in THP-1 cells. THP-1 cells were seeded in 6-well plates at a density of 10^5 cells per well and cultured overnight. […] The results were analyzed with using FlowJo […]
# Fixed cells or tissue sections were washed with PBS, permeabilized with 0.2 % Triton X-100 (Sigma–Aldrich) for 20 minutes, and blocked with 5 % bovine serum albumin for 1 hour at 37 °C. […] Staining results were examined under a fluorescence microscope (Olympus, IX83-FV3000) and quantified using ImageJ (Bethesda, MD, V1.8.0, NIH). […]
substance,measurement,setting,value
"–FLTDG– [FPy1, RhoB donor, hNR quencher]",fluorescence intensity in Si-Casp1 group (flow cytometry),Cas-1 in THP-1 cells,lower than that in the Si-Scramble group
same,intracellular fluorescence intensity in Si-Casp1 group (confocal),Cas-1 in THP-1 cells; FPy1 5 μM,significantly lower than that in the Si-Scramble group
same,in vivo fluorescence at puncture site,"[1]; Co5/6, Co6/7, Co7/8",significant enhancement of fluorescence at the corresponding areas
same,differentiation of IVDD stages by fluorescence intensity,[1],could significantly differentiate the four different stages of IVDD
